Measurements as given in paper PMC11767451, “Novel Approaches to Monitor Pharmacokinetics and Metabolism of Gemcitabine-Ibandronate Conjugate in Mice and Dogs” (Molecules, 2025).
Read-outs that look alike come from different tables or passages of the source.

Experiments:
[1] = Stability in dog plasma (accelerated, freeze-thaw, frozen PK samples); assay type: in vitro ADME; conditions: dog plasma PK samples re-extracted after 2.5 years at <−70 °C
[2] = Autosampler stability of extracted mouse plasma samples at 4 °C; assay type: physicochemical
Procedure: The stability of extracted dog and mouse plasma samples in the autosampler at 4 °C was established for 24 and 48 h. Except for GEM-IB, in mouse and dog plasma extracts, all analytes were within ±20% of the nominal enriched concentration for up to 48 h in the autosampler. GEM-IB was stable for up to 24 h under these conditions.
Method development and validation was conducted following applicable FDA guidelines for bioanalytical assays, as considered fit for purpose. Specificity. Endogenous interferences were excluded by analysis of blank plasma from 6 different individual lots of plasma. The lower limit of quantification (LLOQ) was determined as the lowest concentration consistently achieving an accuracy better than ±20% of the nominal concentration, with imprecision ≤20%. Predefined acceptance criteria. The performance of the assay was considered acceptable if intra- and inter-day imprecision (coefficient of variance, %CV) at each concentration was ≤15%, except at the LLOQ (≤20%). Intra- and inter-day accuracy had to be ±15% of the nominal value, except at the LLOQ (±20%). Calibration curves had to have a correlation coefficient (r) of 0.99 or better. Analytical recovery and imprecision. Intra- and inter-day analytical accuracy and imprecision were tested at least at four concentration levels depending on the LLOQ for each compound. Intra-day imprecision and accuracy were determined with n = 6 per QC level. Inter-day imprecision and accuracy were measured over 3 days, with six replicates for each QC concentration (n = 18). Extraction efficiency and matrix effect. Extraction efficiency for GEM-IB and metabolites was established by comparing the signals of the analytes after the extraction of QCs (n = 6/concentrations), with the signals of the extracted blank matrix spiked with the respective concentrations of analytes after the extraction procedure. The matrix effect was determined by comparing the analyte LC-MS/MS signal after spiking of the analyte into the extracted blank matrix (matrix from 6 different individual lots, analyte concentrations as for the QC samples) with the HPLC-MS/MS signal of the same amount of analyte in neat solution [25]. Carry-over. Carry-over was assessed by injecting blank buffer samples after analysis of the highest calibrators. Carry-over was considered insignificant if there was no signal at the relevant retention times exceeding 20% of the analyte signals at the LLOQ. Stability. QC samples were freshly prepared. One set was extracted and was analyzed immediately to determine baseline signals. Analyte stability in plasma was evaluated at two QC concentration levels (n = 3/concentration level) under different conditions: 1, 2, and 24 h at room temperature and at 4 °C. In addition, stability after extraction was determined after 24 h and 48 h at 4 °C in the autosampler and for up to 3 freeze (−70 °C)–thaw (ambient) cycles. Stability was assessed by comparing analyte concentrations with baseline (t0) concentrations. Stability was assumed when the results were within ±20% of the baseline concentrations. Long-term stability estimates were performed by re-extraction of samples used during the PK study (n = 6). Samples were initially analyzed for the PK assessment and were stored for 1.5 years (GEM-IB and IB) and 2.5 years (GEM, GEMMP, dFdU, and dFdU-MP) at <−70 °C prior to reanalysis. Stability was assessed by comparing analyte concentrations with the initial assessments. Stability was acceptable when the results were within ±20% of the baseline concentrations and the percent standard deviation (%-SD) was below 25%.

[3] = Stability in mouse plasma (accelerated, freeze-thaw, frozen PK samples); assay type: in vitro ADME; conditions: mouse plasma PK samples re-extracted after 2.5 years at <−70 °C
[4] = cited from earlier work
[5] = design: method as in PMID 33744463; conditions: (enriched) mouse plasma; cited from earlier work
[6] = design: method as in PMID 36571444, PMID 24131140, PMID 21561347; conditions: cancer patients; cited from earlier work

| %-ACC, frozen PK sample stability [1] [%] | %-ACC (% accuracy vs nominal) ([2]; 24 hours autosampler 4 °C) [%] | %-ACC (% accuracy vs nominal) ([2]; 48 hours autosampler 4 °C) [%] | %-ACC, frozen PK sample stability [3] [%] | Structure (SMILES) | duration stable in human plasma ([4]; −20 °C) | duration stable in mouse plasma [5] | fatal treatment-related events, share of patients [6] | duration stable in human plasma ([4]; −70 °C) |
| --- | --- | --- | --- | --- | --- | --- | --- | --- |
| 58.1 | 96.9 | 100.4 | 64.0 | Nc1ccn([C@@H]2O[C@H](COP(=O)(O)O)[C@@H](O)C2(F)F)c(=O)n1 [GEMMP, gemcitabine-5′-phosphate] | – | – | – | – |
| 49.3 | 102.4 | 98.8 | 108.1 | O=c1ccn([C@@H]2O[C@H](COP(=O)(O)O)[C@@H](O)C2(F)F)c(=O)[nH]1 [dFdUMP, 2′,2′-difluoro-2′-deoxyuridine-5′-phosphate] | – | – | – | – |
| – | 97.6 | 98.6 | – | CCCCCN(C)CCC(O)(P(=O)(O)O)P(=O)(O)O [IB, ibandronate] | up to 4 months | – | – | – |
| – | 96.8 | 59.7 | – | CCCCCN(C)CCC(O)(P(=O)(O)O)P(=O)(O)OP(=O)(O)OC[C@H]1O[C@@H](n2ccc(N)nc2=O)C(F)(F)[C@@H]1O (some centres unmarked) [GEM-IB] | – | – | – | – |
| 63.4 | 103.9 | 103.4 | 71.5 | O=c1ccn([C@@H]2O[C@H](CO)[C@@H](O)C2(F)F)c(=O)[nH]1 [dFdU, 2′,2′-difluoro-2′-deoxyuridine] | – | up to 42 days | – | – |

| Structure (SMILES) | %-ACC, frozen PK sample stability [1] [%] | %-ACC (% accuracy vs nominal) ([2]; 24 hours autosampler 4 °C) [%] | %-ACC (% accuracy vs nominal) ([2]; 48 hours autosampler 4 °C) [%] | %-ACC, frozen PK sample stability [3] [%] | duration stable in human plasma ([4]; −20 °C) | duration stable in mouse plasma [5] | fatal treatment-related events, share of patients [6] | duration stable in human plasma ([4]; −70 °C) |
| --- | --- | --- | --- | --- | --- | --- | --- | --- |
| Nc1ccn([C@@H]2O[C@H](CO)[C@@H](O)C2(F)F)c(=O)n1 [GEM, gemcitabine] | – | 102.0 | 107.0 | – | – | up to 42 days | <1% to 4 | up to 30 days |
